Experimental data reported in PubChem BioAssay (NCI).
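In this assay, cells in 96-well plates receive the compound at five concentrations for 48 hours. Endpoints are linearly interpolated between the surrounding concentrations. GI50: concentration for 50% inhibition of growth. TGI: total growth inhibition.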 Where a SMILES comes first, the peptide text is derived from it. The star is where a group is joined. Boc = CC(C)(C)OC(=O)*

Tests used:
Assay in all cases: growth of human tumour cells (NCI), 48 h
NCI/ADR-RES ovarian = test system: NCI/ADR-RES ovarian
SF-268 CNS = test system: SF-268 CNS
A498 renal = test system: A498 renal
HCT-116 colon = test system: HCT-116 colon
SK-MEL-28 melanoma = test system: SK-MEL-28 melanoma
SN12C renal = test system: SN12C renal
CCRF-CEM leukemia = test system: CCRF-CEM leukemia
SK-MEL-5 melanoma = test system: SK-MEL-5 melanoma
T-47D breast = test system: T-47D breast
DU-145 prostate = test system: DU-145 prostate
RXF 393 renal = test system: RXF 393 renal
HOP-62 NSCLC = test system: HOP-62 NSCLC

Structure (SMILES) | TGI (NCI/ADR-RES ovarian) [µM] | TGI (SF-268 CNS) [µM] | TGI (A498 renal) [µM] | TGI (HCT-116 colon) [µM] | TGI (SK-MEL-28 melanoma) [µM] | TGI (SN12C renal) [µM] | TGI (CCRF-CEM leukemia) [µM] | TGI (SK-MEL-5 melanoma) [µM] | TGI (T-47D breast) [µM] | TGI (DU-145 prostate) [µM] | TGI (RXF 393 renal) [µM] | TGI (HOP-62 NSCLC) [µM] | GI50 (NCI/ADR-RES ovarian) [µM] | GI50 (SF-268 CNS) [µM] | GI50 (A498 renal) [µM] | GI50 (SK-MEL-28 melanoma) [µM] | GI50 (SN12C renal) [µM] | GI50 (CCRF-CEM leukemia) [µM] | GI50 (HOP-62 NSCLC) [µM] | GI50 (DU-145 prostate) [µM]
CC(=O)Nc1c(C)cc2c(nc3n2CCC3O)c1[N+](=O)[O-] (stereo unspecified) | > 100 | > 100 | > 100 | > 100 | > 100 | > 100 | > 100 | > 100 | > 100 | > 100 | – | – | – | – | – | – | – | – | – | –
C=C1C2C[C@@H]3O[C@H]4C[C@H]5O[C@@]6(C[C@@H]7O[C@]8(C[C@H](C)[C@@H]9O[C@@H]%10CC(CO)O[C@@H]%10C[C@@H]9O8)C[C@H](C)[C@@H]7O6)C[C@H]5O[C@H]4[C@H](C)[C@H]3OC(=O)C[C@H]3CC[C@@H]4OC5[C@H]6O[C@]7(CC[C@H]8CC(=C)[C@H](CC[C@@H](C[C@H]1C)O2)O8)CC6O[C@@H]5[C@@H](O7)[C@H]4O3 (stereo partly specified) | > 1 | > 0.874 | > 1 | – | – | > 1 | > 1 | 0.00332 | – | – | > 1 | > 1 | – | – | – | – | – | – | – | –
COc1cc2c(cc1OCCCC(=O)Nc1ccc3ccc4cccc5ccc1c3c45)N=C[C@@H]1CCCN1C2=O | 0.262 | 0.864 | < 0.0509 | – | < 0.01 | 0.0423 | 0.936 | – | – | < 0.01 | – | 1.74 | 0.0543 | 0.27 | < 0.0243 | < 0.01 | < 0.0136 | 0.0335 | < 0.01 | < 0.01
COc1ccc(/C=C2\CCC(C)C3=C2N=c2s/c(=C/c4cccc(Br)c4)c(=O)n2C3c2ccc(OC)c(OC)c2)cc1OC (stereo unspecified) | – | > 100 | > 100 | > 100 | > 100 | > 100 | > 100 | > 100 | – | > 100 | > 100 | > 100 | – | – | – | – | – | – | – | –
Cc1ccc2c(c1)-c1nc(N)c(C#N)c(-c3ccccc3)c1CCS2(=O)=O | > 100 | > 100 | 98.9 | > 100 | > 100 | > 100 | – | > 100 | > 100 | > 100 | – | > 100 | – | – | – | – | – | – | – | –
O=C1Oc2cc(O)cc(/C=C/c3ccc(O)cc3)c2[C@@]12c1c(O)cc(O)cc1OC2c1cccc(O)c1 (stereo partly specified) | > 100 | > 100 | – | > 100 | > 100 | 78 | 56.5 | 43.3 | > 100 | > 100 | 94.3 | 65.5 | – | – | – | – | – | – | – | –
O=C1c2ccc(O)c(O)c2C(=O)c2c(O)ccc(O)c21 | – | > 100 | 53.8 | 45.2 | > 100 | 56.7 | 56.7 | – | – | – | 55.2 | 65.4 | – | – | – | – | – | – | – | –
O=C(Nc1nc(C23CC4CC(CC(C4)C2)C3)cs1)c1cc2ccccc2oc1=O | > 100 | > 100 | > 100 | > 100 | > 100 | > 100 | > 100 | > 100 | – | > 100 | > 100 | > 100 | – | – | – | – | – | – | – | –
COI1NC(=O)c2ccccc21 | > 100 | > 100 | > 100 | > 100 | > 100 | > 100 | > 100 | > 100 | – | > 100 | – | > 100 | – | – | – | – | – | – | – | –
O=C1c2ccccc2C(=O)N1CC(O)COc1cccc2ccccc12 (stereo unspecified) | > 100 | > 100 | > 100 | > 100 | > 100 | – | > 100 | > 100 | – | > 100 | – | > 100 | – | – | – | – | – | – | – | –
CC(=O)O[C@H]1[C@H](OC(=O)CC(C)(O)CC(=O)O)C[C@]2(C)C3=C(CCC2C1(C)C)[C@]1(C)CC[C@H]([C@H]2CC[C@H](C(C)(C)O)OC2O)[C@@]1(C)[C@@H](O)C3 (stereo partly specified) | > 100 | – | 26.4 | 44.7 | 31.5 | 32.1 | 49.7 | 30.9 | 40.2 | 64.8 | – | 32.7 | – | – | – | – | – | – | – | –
O=C1CSC(c2cccc([N+](=O)[O-])c2)N1c1ccc(-n2c(-c3ccccc3)nc3ccccc3c2=O)cc1 (stereo unspecified) | > 100 | > 100 | > 100 | > 100 | > 100 | > 100 | > 100 | > 100 | > 100 | > 100 | – | > 100 | – | – | – | – | – | – | – | –
Cc1ccccc1S(=O)(=O)Nn1cnc2ccc(S(=O)(=O)Nc3ccc(Cl)cc3)cc2c1=O | > 100 | > 100 | – | > 100 | > 100 | > 100 | > 100 | – | – | > 100 | – | > 100 | – | – | – | – | – | – | – | –
COC(=O)C(Cc1c[nH]c2ccccc12)NC(=O)C(Cc1c[nH]c2ccccc12)NC(=O)C(Cc1c[nH]c2ccccc12)NC(=O)C(Cc1c[nH]c2ccccc12)NC(=O)C(Cc1c[nH]c2ccccc12)NC(=O)C(Cc1c[nH]c2ccccc12)NC(=O)C(Cc1c[nH]c2ccccc12)NC(=O)C(Cc1c[nH]c2ccccc12)NC(=O)OC(C)(C)C (stereo unspecified) (Boc-WWWWWWWW-OMe; configuration not given here) | – | > 100 | 55.6 | > 100 | > 100 | > 100 | 96.2 | 73.3 | – | > 100 | – | > 100 | – | – | – | – | – | – | – | –
NC(=S)N/N=C\c1nccc2ccccc12 | 1.13 | 1.47 | 2.39 | > 59.4 | 0.951 | 0.779 | – | 3.7 | > 100 | > 100 | – | – | – | – | – | – | – | – | – | –
COc1ccc2c(c1)CCc1c-2n(CCN2CCCCC2)c2ccc(OC)cc12 | > 100 | > 100 | > 100 | > 100 | > 100 | > 100 | > 100 | > 100 | > 100 | > 100 | – | > 100 | – | – | – | – | – | – | – | –
Cn1c2ccccc2c(=O)c2cccc(C(=O)NC(CCC(N)=O)C(=O)O)c21 (stereo unspecified) | > 100 | > 100 | > 100 | > 100 | > 100 | > 100 | – | > 100 | > 100 | > 100 | – | > 100 | – | – | – | – | – | – | – | –
COc1cc(/C=C/C(=O)C2(C(=O)/C=C/c3cc(OC)c(OC)c(OC)c3)CCCCC2)cc(OC)c1OC | > 100 | > 100 | > 100 | > 100 | > 100 | > 100 | > 100 | > 100 | > 100 | > 100 | – | > 100 | – | – | – | – | – | – | – | –
CCOC(=O)NC(Nc1ccc(C(=O)OCC)cc1)(C(F)(F)F)C(F)(F)F | > 100 | > 100 | > 100 | > 100 | > 100 | > 100 | > 100 | > 100 | > 100 | > 100 | – | > 100 | – | – | – | – | – | – | – | –
COc1cc(/C=c2\sc3n(c2=O)C(c2ccc(Cl)cc2)C2=C(CCCC2C)N=3)cc(OC)c1OC (stereo unspecified) | – | > 100 | > 100 | > 100 | > 100 | > 100 | > 100 | > 100 | – | > 100 | > 100 | > 100 | – | – | – | – | – | – | – | –
COc1ccc(SCc2cc(OCc3ccccc3)c(OCc3ccccc3)c(OCc3ccccc3)c2)cc1 | 3.38 | 3.42 | 3.49 | 3.14 | 3.52 | 3.49 | 3.49 | – | – | 3.13 | – | – | – | – | – | – | – | – | – | –
CC(C)(C)c1cc(O)ccc1O | > 100 | > 51.1 | > 100 | > 72.9 | > 100 | > 100 | 33.2 | > 100 | 41.9 | 23.4 | – | > 100 | – | – | – | – | – | – | – | –
CC(=O)c1cc2ccccc2oc1=O | > 100 | > 100 | > 100 | > 100 | > 100 | > 100 | > 100 | > 100 | – | > 100 | > 100 | > 100 | – | – | – | – | – | – | – | –
O=C(NNC(=S)NC1CCCCC1)c1csc(NC(=S)NC2CCCCC2)n1 | 13.3 | 26.3 | 36.3 | 16.5 | – | 25.9 | > 100 | 8.79 | 74.6 | > 100 | – | 35.2 | – | – | – | – | – | – | – | –
Nn1c(Cc2ccc([N+](=O)[O-])cc2)n[nH]c1=O | > 100 | > 100 | – | > 100 | > 100 | > 100 | > 100 | > 100 | > 100 | > 100 | – | > 100 | – | – | – | – | – | – | – | –
COc1ccc(-c2cc3[nH]nc(N)c3c(=O)o2)cc1 | – | > 100 | > 100 | > 100 | > 100 | > 100 | > 100 | > 100 | – | – | > 100 | – | – | – | – | – | – | – | – | –
Cc1cc(S(=O)(=O)Nc2nc3ccccc3c(=O)n2N)c(S)cc1Cl | 83.4 | 40.1 | – | > 100 | > 100 | > 100 | > 100 | > 100 | – | > 100 | – | 79.7 | – | 7.23 | – | – | – | – | – | –
COc1ccccc1C(=O)c1c(NCc2ccccc2)c(=O)c1=O | > 100 | > 100 | > 100 | > 100 | 35.8 | > 100 | > 100 | > 100 | – | > 100 | – | > 100 | – | – | – | – | – | – | – | –
